The source of these data is patent publication US20220401381A1, “PERIPHERALLY ACTING CANNABIDIOL (CBD)-CONTAINING COMPOUNDS AND USES THEREOF FOR ENHANCING FEMALE SEXUAL FUNCTION OR TREATING FEMALE SEXUAL DISORDERS” (Vella Bioscience, Inc., priority 2019, published 2022).

Entries after “also recorded” stand apart in the source; their conditions may differ.

For data set [1], the system named is rat vaginal smooth muscle tissue (intact/sham rats). Put plainly: EFS-induced contraction of vaginal strips from intact/sham rats, isolated organ bath, isometric tension. The text has this: (§1) The following in vitro methodology was utilized to examine the concentration-dependent response of rat vaginal tissue, both proximal and distal, to CBD following contraction by electrical field stimulation (similar to efferent neurostimulation in vivo)
(§2) Female rats either intact (n=6) or bilaterally oophorectomized (OVX) (n=6 rats); the animals were euthanized 6 weeks post OVX and vagina dissected. Then, the vagina was cut into 2 halves, proximal and distal, and 4 strips max per region cut in circular direction were prepared and mounted as shown in FIG. 1.
(§3) The strips were excised from the tissue samples and connected to force transducers for isometric tension recording. Organ baths were filled with Krebs buffer maintained at 37° C. and bubbled with 95% O2 and 5% CO2, pH 7.4.
Female rats without (n=6) prior bilateral oophorectomies were euthanized and the proximal and distal vaginal tissue was harvested and suspended in a classic organ bath infused at a physiological temperature, pH, and oxygen level. […] This was also true regardless of whether the tissue was from the proximal or distal vaginal tissue (FIG. 2(A-E)).

Data set [2] concerns rat vaginal smooth muscle tissue (OVX rats). Put plainly: EFS-induced contraction of vaginal strips from oophorectomized (OVX) rats, isolated organ bath, isometric tension.
Description: as §1, §2, §3
Female rats with (n=6) prior bilateral oophorectomies were euthanized and the proximal and distal vaginal tissue was harvested and suspended in a classic organ bath infused at a physiological temperature, pH, and oxygen level. […] This was also true regardless of whether the tissue was from the proximal or distal vaginal tissue (FIG. 3(A-E)).

The conditions of data set [3]: subcutaneous injection 45 minutes prior to sexual activity; cited from earlier work.

As for `C=C(C)[C@@H]1CCC(C)=C[C@H]1c1c(O)cc(CCCCC)cc1O` [CBD, (−)-trans-cannabidiol], the “relaxation (inhibition of EFS-induced contraction) of vaginal strips” value was “dramatic and significant dose-response relaxation; also recorded: significant relaxant effect” in data set [1] (intact/sham (non-oophorectomized) rats, proximal or distal tissue, CBD 1, 10 and 100 μg/ml, EFS 1 Hz to 48 Hz, vs vehicle); “dramatic and significant dose-response relaxation; also recorded: significant relaxant effect” in data set [2] (oophorectomized (OVX) rats, proximal or distal tissue, CBD 1, 10 and 100 μg/ml, EFS 1 Hz to 48 Hz, vs vehicle). Moreover, the “relaxant effect on distal vaginal smooth muscle tissue” value in data set [1] (intact/sham rat, distal, FIG. 4B) is recorded as “statistically significant, unexpected, peripheral, dose-dependent pharmacological relaxant effect”; in data set [2] (OVX rat, distal, FIG. 5B) it was “statistically significant, unexpected, peripheral, dose-dependent pharmacological relaxant effect”. The “relaxant effect on proximal vaginal smooth muscle tissue” value in data set [1] (intact/sham rat, proximal, FIG. 4A) is “statistically significant, unexpected, peripheral, dose-dependent pharmacological relaxant effect”; in data set [2] (OVX rat, proximal, FIG. 5A), “statistically significant, unexpected, peripheral, dose-dependent pharmacological relaxant effect”.

As for `CCCC[C@H](NC(C)=O)C(=O)N[C@H]1CC(=O)NCCCC[C@@H](C(=O)O)NC(=O)[C@H](Cc2c[nH]c3ccccc23)NC(=O)[C@H](CCCN=C(N)N)NC(=O)[C@@H](Cc2ccccc2)NC(=O)[C@H](Cc2cnc[nH]2)NC1=O` [bremelanotide], the “side-effect: nausea, incidence” value in data set [3] is recorded as 40%.
